In BindingDB's records for doi:10.1016/0006-3223(89)90217-5 (Stanford University, 1989):

Columns and labels:
[1] = biological target: T1, 5-hydroxytryptamine receptor 1A (Homo sapiens, UniProt P08908)
T1 sequence (P08908 whole entry): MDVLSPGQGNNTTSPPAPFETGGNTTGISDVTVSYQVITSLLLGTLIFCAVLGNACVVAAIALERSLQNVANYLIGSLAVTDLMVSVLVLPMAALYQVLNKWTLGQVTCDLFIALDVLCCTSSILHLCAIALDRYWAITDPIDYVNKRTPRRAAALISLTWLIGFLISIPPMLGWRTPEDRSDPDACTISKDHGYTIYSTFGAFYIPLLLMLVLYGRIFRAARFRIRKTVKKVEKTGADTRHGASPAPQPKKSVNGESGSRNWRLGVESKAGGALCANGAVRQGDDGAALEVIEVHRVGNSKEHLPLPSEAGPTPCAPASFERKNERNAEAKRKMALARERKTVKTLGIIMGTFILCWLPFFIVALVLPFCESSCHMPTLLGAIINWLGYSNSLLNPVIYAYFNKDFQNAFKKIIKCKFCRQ

[2] = biological target: 5-hydroxytryptamine receptor 1D (Homo sapiens, UniProt P28221)
5-hydroxytryptamine receptor 1D, sequence (P28221 whole entry): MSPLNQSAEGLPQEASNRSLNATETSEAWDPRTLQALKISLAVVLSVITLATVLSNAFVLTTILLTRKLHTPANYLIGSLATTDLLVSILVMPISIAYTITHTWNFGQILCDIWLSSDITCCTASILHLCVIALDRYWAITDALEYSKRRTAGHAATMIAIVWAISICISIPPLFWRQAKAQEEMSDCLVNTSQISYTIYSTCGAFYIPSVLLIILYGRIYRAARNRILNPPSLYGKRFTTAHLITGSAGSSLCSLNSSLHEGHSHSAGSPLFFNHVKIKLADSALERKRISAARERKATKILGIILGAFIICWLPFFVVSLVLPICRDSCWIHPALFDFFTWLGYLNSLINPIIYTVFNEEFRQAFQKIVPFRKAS

[3] = biological target: Beta-2 adrenergic receptor (Homo sapiens, UniProt P07550)
Beta-2 adrenergic receptor, sequence (P07550 whole entry): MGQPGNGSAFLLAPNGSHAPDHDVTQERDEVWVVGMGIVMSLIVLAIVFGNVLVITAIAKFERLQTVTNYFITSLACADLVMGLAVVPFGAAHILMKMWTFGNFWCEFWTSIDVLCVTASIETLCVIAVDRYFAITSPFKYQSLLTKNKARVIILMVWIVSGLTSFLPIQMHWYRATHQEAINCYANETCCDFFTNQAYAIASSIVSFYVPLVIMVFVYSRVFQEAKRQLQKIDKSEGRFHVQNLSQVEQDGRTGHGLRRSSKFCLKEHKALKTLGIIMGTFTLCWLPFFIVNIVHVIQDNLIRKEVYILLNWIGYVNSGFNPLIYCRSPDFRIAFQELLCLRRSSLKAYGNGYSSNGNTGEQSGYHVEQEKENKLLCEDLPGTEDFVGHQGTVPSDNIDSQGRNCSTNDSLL

[4] = biological target: D(2) dopamine receptor (Homo sapiens, UniProt P14416)
D(2) dopamine receptor, sequence (P14416 whole entry): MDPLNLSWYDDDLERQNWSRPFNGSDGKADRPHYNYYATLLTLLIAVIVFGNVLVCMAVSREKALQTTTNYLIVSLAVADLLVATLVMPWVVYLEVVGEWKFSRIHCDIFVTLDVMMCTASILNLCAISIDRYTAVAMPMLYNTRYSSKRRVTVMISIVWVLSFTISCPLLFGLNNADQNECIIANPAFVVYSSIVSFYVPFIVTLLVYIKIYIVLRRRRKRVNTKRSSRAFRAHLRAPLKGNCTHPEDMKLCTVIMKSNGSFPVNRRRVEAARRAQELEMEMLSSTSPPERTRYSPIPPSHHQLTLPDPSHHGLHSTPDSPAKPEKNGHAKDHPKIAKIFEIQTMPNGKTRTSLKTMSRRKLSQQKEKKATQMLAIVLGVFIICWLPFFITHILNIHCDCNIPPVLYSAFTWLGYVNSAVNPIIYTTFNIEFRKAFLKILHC

[5] = biological target: D(1A) dopamine receptor (Homo sapiens, UniProt P21728)
D(1A) dopamine receptor, sequence (P21728 whole entry): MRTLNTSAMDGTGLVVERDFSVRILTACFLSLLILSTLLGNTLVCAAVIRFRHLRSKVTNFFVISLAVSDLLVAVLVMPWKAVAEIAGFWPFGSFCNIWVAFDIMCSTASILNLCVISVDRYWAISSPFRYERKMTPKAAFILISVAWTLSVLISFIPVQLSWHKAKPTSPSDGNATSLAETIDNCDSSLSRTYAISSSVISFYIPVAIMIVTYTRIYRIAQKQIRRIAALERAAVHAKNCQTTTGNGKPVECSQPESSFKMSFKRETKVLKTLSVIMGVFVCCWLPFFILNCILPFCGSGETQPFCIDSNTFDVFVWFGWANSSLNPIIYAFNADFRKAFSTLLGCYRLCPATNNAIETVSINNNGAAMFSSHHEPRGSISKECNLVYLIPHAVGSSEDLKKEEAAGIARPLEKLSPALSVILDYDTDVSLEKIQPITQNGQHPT

[6] = biological target: T2, Muscarinic acetylcholine receptor M2 (Homo sapiens, UniProt P08172)
T2 sequence (P08172 whole entry): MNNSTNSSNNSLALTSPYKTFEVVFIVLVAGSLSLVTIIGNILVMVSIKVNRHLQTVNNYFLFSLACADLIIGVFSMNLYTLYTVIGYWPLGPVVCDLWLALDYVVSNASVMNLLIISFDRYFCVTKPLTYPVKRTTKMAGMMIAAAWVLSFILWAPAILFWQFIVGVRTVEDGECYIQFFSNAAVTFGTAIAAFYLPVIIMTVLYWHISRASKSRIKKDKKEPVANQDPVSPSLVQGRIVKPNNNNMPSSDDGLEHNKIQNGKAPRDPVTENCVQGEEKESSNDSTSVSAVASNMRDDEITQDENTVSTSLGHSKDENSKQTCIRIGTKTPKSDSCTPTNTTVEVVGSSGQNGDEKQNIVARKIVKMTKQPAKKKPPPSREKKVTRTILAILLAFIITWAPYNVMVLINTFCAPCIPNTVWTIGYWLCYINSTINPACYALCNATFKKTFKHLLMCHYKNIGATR

[7] = biological target: T3, Solute carrier family 22 member 1 (Homo sapiens, UniProt O15245)
T3 sequence (O15245 whole entry): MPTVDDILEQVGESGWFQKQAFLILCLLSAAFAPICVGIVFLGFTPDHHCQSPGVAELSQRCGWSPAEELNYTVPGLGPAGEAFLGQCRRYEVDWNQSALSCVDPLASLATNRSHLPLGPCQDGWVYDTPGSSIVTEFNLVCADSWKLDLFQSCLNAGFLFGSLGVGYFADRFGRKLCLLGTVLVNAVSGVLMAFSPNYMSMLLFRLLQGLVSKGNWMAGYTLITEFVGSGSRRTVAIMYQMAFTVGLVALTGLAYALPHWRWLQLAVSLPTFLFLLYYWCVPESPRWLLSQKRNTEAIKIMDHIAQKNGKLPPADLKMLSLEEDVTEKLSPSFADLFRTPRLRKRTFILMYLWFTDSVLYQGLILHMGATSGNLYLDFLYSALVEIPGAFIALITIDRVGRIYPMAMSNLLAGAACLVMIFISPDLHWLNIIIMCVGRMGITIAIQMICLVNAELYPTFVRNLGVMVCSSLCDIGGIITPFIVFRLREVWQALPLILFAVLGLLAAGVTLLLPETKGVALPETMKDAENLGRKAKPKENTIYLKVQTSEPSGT

[8] = biological target: T4, Gamma-aminobutyric acid receptor subunit alpha-1 (Homo sapiens, UniProt P14867)
T4 sequence (P14867 whole entry): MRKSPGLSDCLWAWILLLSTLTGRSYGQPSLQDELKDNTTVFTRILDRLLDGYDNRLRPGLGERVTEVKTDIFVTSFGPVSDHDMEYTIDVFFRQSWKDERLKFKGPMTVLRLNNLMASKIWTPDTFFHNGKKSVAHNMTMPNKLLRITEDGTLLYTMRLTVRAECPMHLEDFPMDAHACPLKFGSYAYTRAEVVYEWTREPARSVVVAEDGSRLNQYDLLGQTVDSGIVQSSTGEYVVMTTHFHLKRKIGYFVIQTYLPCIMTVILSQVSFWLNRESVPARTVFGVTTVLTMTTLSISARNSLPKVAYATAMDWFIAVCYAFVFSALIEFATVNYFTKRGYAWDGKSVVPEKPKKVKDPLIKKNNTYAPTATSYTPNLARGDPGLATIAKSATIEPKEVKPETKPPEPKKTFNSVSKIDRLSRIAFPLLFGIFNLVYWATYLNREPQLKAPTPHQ

[9] = biological target: T5, Alpha-2A adrenergic receptor (Homo sapiens, UniProt P08913)
T5 sequence (P08913 whole entry): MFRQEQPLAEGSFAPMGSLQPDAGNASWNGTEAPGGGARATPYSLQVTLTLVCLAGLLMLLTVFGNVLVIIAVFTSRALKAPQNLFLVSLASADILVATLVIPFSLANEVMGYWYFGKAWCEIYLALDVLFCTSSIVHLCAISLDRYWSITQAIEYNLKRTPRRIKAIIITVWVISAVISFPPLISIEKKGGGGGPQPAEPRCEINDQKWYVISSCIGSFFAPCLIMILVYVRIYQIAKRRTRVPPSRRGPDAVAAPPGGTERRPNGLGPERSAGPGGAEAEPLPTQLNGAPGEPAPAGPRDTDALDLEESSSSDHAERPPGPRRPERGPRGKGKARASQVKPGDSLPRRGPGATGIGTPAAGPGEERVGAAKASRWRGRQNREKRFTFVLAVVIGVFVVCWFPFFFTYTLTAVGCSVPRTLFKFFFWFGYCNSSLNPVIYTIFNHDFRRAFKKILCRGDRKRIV

Clc1cccc(N2CCNCC2)c1 [mCPP]
Ki [1]: 400 nM
Ki [2]: 1300 nM
Ki [3]: 2500 nM
Ki [4]: > 10000 nM
Ki [5]: 7000 nM
Ki [6]: > 10000 nM
Ki [7]: 2900 nM
Ki [8]: > 10000 nM
Ki [9]: 570 nM
